“Also recorded” adds a separate entry of the source. Non-standard residues stand in square brackets, D forms with d. No end group written: not given here.

The values that follow come from patent US11279744B2, “Neuropeptide Y fragment capable of releasing hematopoietic stem cells into blood and treating osteoporosis” (Kyungpook National University Industry-Academic Cooperation …, priority 2017, dated 2022).

What all share (assay type): in vivo, mouse
The subject of test [1] is adhesion factors of hematopoietic stem cell in bone marrow (Sdf-1a, KitI, Angpt1). Kind of test: expression of adhesion factors in bone marrow of osteoporosis animal models, real-time quantitative PCR. As to conditions: OVX mice, 50 μg/kg i.p. twice a day for 4 weeks; bone marrow 1 hour after last administration. Here is the method:
(§1) To make an osteoporosis model, 10-18 12 weeks old female mice per group underwent ovarian ablation. A week later, 50 μg/kg of NPY(21-28), NPY D^25(21-28), NPY D^26(21-28), NPY D^25,26(21-28), Osteopep2, NPY and 100 μl of PBS(Gibco) were intraperitoneally administered twice a day for 4 weeks at 12 hour intervals. Alendronate (Sigma), used as a competitive drug, was intraperitoneally administered once a week for 4 weeks at a dose of 50 μg/kg. As a control group, only Sham model of osteoporosis was performed by subcutaneous dissection of female mouse. Mice were placed in experimental groups using the Block randomization method, and all mouse experiments were approved through the Kyungpook National University Institutional Animal Care and Use Committee.
Real-time quantitative PCR was used to measure expression levels of hematopoietic stem cell adhesion factors (Sdf-1a, KitI, Angpt1) present in osteoblasts. Total RNA was extracted from cell eluate and bone marrow cells using the RNeasy Plus mini kit (Qiagen, Korea, Ltd), and cDNAs were synthesized from 5 μg total RNA using a kit in Clontech (Mountain View, Calif.). In addition, using a Corbett research RG-6000 real-time PCR instrument, Real-time quantitative PCR was performed at 95° C. for 10 minutes; at 95° C., for 10 seconds; at 58° C., for 15 seconds; at 72° C. for 20 seconds as one cycle, and 40 cycles were repeated.
In order to investigate whether the NPY (21-28) of the present invention affects the blood release of myelopoiesis stem cells in the animal models of osteoporosis, the following experiments were carried out according to the methods of Examples 1-1, 1-3, 1-4, and 1-5. In order to make animal models of osteoporosis, 12 weeks old C57BL/6 female mice were subjected to ovarian ablation for 10 to 18 animals in each group. […] Weight change was measured weekly, and bone marrow and blood were collected one hour after the last dose at 4 weeks, and the release of myelopoiesis progenitor and stem cells into blood was analyzed. […]

Test [2] relates to osteoclasts in bone marrow. Kind of test: TRAP staining of osteoclasts in bone marrow of osteoporosis animal models. As to conditions: OVX mice, 50 μg/kg i.p. twice a day for 4 weeks; compared to PBS. Here is the method: as §1
The femurs were separated from the mice and fixed in 4% paraformaldehyde for 24 hours, and tissue was decalcified in 10% EDTA for 5 weeks. It was then dehydrated with a series of diluted alcohols, paraffinized, and prepared into […] paraffin sections.
For TRAP staining, sections were deparaffinized, stained with 1.33 mM Fast Red Violet LB Salt (Sigma-Aldrich) in 50 mM sodium acetate (pH 5.0) containing 225 μM Naphthol AS-MX phosphate (Sigma-Aldrich, St Louis, Mo., USA), 0.84% N, N-dimethylformamide (Sigma-Aldrich) and 50 mM sodium tartrate, and incubated for 30 minutes. After incubation, the sections were washed with distilled water and counterstained with 1% methyl green.
Histomorphometric analysis was performed using the OsteoMeasure program (Extensive interactive Bone Histomorphometry Analysis System).
After the last administration at 4 weeks of NPY (21-28), the femurs were separated from the mice and the number of osteoclasts in the bone marrow was measured by TRAP staining.
After the last administration at 4 weeks of NPY D^25(21-28), NPY D^26(21-28), and NPY D^25,26(21-28), the femurs were separated from the mice and the number of osteoclasts in the bone marrow was measured by TRAP staining.

A short description of test [3]: weight change in animal models of osteoporosis (OVX). The settings on record: OVX mice, 50 μg/kg intraperitoneally twice a day for 4 weeks; weighed weekly; vs PBS group that gained weight. The method, then:
as §1
In order to investigate whether the NPY (21-28) of the present invention affects the blood release of myelopoiesis stem cells in the animal models of osteoporosis, the following experiments were carried out according to the methods of Examples 1-1, 1-3, 1-4, and 1-5. In order to make animal models of osteoporosis, 12 weeks old C57BL/6 female mice were subjected to ovarian ablation for 10 to 18 animals in each group. One week later, 50 μg/kg of NPY (21-28) and 100 μl of PBS (Gibco) were intraperitoneally administered twice a day for 4 weeks at 12 hour intervals. As a control group, mice that underwent only subcutaneous incisions in normal mice were used. Weight change was measured weekly, and bone marrow and blood were collected one hour after the last dose at 4 weeks, and the release of myelopoiesis progenitor and stem cells into blood was analyzed. […]
In order to investigate the effect of NPY (21-28) of the present invention on weight gain induced by osteoporosis, body weight was measured once a week for a total of 4 weeks of NPY (21-28) injection. […]
In order to investigate the effects of NPY D^25(21-28), NPY D^26(21-28), and NPY D^25,26(21-28) of the present invention on weight gain induced by osteoporosis, body weight was measured once a week for a total of 4 weeks in which each peptide was injected.

As for “NPY D^25(21-28): peptide in which arginine, the fifth amino acid of the amino acid sequence of NPY (21-28), is modified to D-type (YSAL[dR]HYI)”, the “expression levels of major adhesion factors Sdf-1a, KitI, and Angpt1 in bone marrow” value (“expression levels” below) in test [1] was “decreased; also recorded: generally superior to those of NPY”. In test [2], the “number of TRAP positive osteoclasts in bone marrow (Number of osteoclast/Bone surface)” value (“number … (Number of osteoclast/Bone surface)” for short) is given as “reduced” and the “osteoclast surface (Osteoclast surface/Bone surface)” value was “reduced”. In test [3], the weight change entry is on record as “did not change in weight”.

With “NPY D^25,26(21-28): peptide in which both the fifth and sixth amino acids of NPY (21-28) are modified to D-form (YSAL[dR][dH]YI)”, the “expression levels” value in test [1] is “decreased; also recorded: generally superior to those of NPY”. In test [2], the “number … (Number of osteoclast/Bone surface)” value is recorded as “reduced; also recorded: highest efficiency” and the “osteoclast surface (Osteoclast surface/Bone surface)” value is given as “reduced”. For the same substance, the weight change result in test [3] was “did not change in weight”.

For the substance YSALRHYI [NPY (21-28)], the “expression levels” value in test [1] is “decreased”. In addition, in test [2], the “number … (Number of osteoclast/Bone surface)” value is “superior to Osteopep2 and NPY; also recorded: superior to the competitive drug Alendronate”; the “osteoclast surface (Osteoclast surface/Bone surface)” value was “superior to Osteopep2 and NPY; also recorded: superior to the competitive drug Alendronate”. Further, in test [3], the weight change result is “did not change in weight”.
